Assay [1] addresses T1, Aldehyde dehydrogenase 1, mitochondrial (Saccharomyces cerevisiae, UniProt P22281).
T1 sequence (P22281 whole entry): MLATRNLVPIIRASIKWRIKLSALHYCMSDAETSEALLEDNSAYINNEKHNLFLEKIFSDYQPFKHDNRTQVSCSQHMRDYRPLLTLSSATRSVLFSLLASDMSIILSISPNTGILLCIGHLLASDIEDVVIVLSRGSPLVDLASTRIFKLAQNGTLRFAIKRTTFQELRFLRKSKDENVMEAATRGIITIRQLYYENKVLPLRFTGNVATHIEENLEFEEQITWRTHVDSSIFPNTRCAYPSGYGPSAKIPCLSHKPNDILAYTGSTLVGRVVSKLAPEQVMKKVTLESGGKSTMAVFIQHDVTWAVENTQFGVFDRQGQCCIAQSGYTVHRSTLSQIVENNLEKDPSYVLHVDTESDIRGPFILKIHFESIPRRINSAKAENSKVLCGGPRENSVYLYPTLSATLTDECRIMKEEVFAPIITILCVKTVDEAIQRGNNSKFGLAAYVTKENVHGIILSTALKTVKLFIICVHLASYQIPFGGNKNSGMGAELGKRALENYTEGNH
Kind of assay: Inhibition of yeast aldehyde dehydrogenase by spectrophotometry following NADH formation at 340 nm.

Assay [2] concerns the target T2, Aldehyde dehydrogenase 1, mitochondrial (Saccharomyces cerevisiae) (UniProt P22281).
T2 sequence (whole entry): T1 sequence (P22281 whole entry)
Kind of assay: Inhibition of yeast aldehyde dehydrogenase at 0.5 mM by spectrophotometry following NADH formation at 340 nm.

Each structure is given as a SMILES string.

On to `CCCCCC/C=C/C(=O)CCCCCCC(=O)OCC`, for which, in assay [1], it took 170 µM to reach half-maximal inhibition (IC50). As to `CCCCC/C=C/C=C/C(=O)CCCCCCCC(=O)O`, the inhibition (as a rule, the change of the read-out against control, counted positive when it falls) in assay [2] is less than 50%.

For `CCCCCCCC/C=C/C(=O)CCCCCCC(=O)OCC`, the half-inhibitory concentration (IC50) (commonly the concentration that inhibits the measured activity by half) in assay [1] was 430 µM. In the case of `CCCCCC(=O)/C=C/C=C/CCCCCCCC(=O)OCC(O)CO` (stereo not given), the inhibition in assay [2] is less than 50%.

As for `CCCCCCCC/C=C/C(=O)CCCCCCC(=O)O`, half-maximal inhibition in assay [1] (IC50) was put at 280 µM.

The record behind these values is ChEMBL document CHEMBL1150143, “Aldehyde dehydrogenase inhibitors from the mushroom Clitocybe clavipes” (J Nat Prod, 2002).
